Laboratory results as given in BindingDB's records for doi:10.1124/mol.64.4.841 (Pohang University of Science and Technology, 2003).
Square brackets hold non-standard residues; d marks the D form. Peptide text beside a SMILES is read from it.

target: T1, fMet-Leu-Phe receptor (Homo sapiens, UniProt P21462)
T1 sequence (P21462 whole entry): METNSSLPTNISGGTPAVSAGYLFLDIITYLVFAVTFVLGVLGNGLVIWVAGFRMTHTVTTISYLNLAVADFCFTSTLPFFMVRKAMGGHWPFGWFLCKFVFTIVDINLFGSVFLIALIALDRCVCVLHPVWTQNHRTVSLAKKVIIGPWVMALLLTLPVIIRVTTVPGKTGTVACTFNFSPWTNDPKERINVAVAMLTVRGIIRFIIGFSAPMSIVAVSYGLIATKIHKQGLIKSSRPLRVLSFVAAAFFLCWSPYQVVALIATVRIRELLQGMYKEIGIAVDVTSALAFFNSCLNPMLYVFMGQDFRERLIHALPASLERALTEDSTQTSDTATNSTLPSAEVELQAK

Structure (SMILES) | Ki
CSCC[C@H](NC(=O)[C@@H](N)Cc1ccc(O)cc1)C(=O)N[C@H](C(=O)N[C@H](CCSC)C(N)=O)C(C)C [YMVm-NH2] (H-YMV[dM]-NH2) | 567 nM
CSCC[C@H](NC(=O)[C@H](Cc1ccc(O)cc1)NC(=O)[C@H](CC(=O)O)NC(=O)[C@@H](N)Cc1c[nH]c2ccccc12)C(=O)N[C@H](C(=O)N[C@H](CCSC)C(N)=O)C(C)C [WDYMVm-NH2] (H-WDYMV[dM]-NH2) | 99 nM
CSCC[C@H](NC(=O)[C@H](CC(=O)O)NC(=O)[C@H](CCCCN)NC(=O)[C@@H](N)Cc1c[nH]c2ccccc12)C(=O)N[C@H](C(=O)N[C@H](CCSC)C(N)=O)C(C)C [WKDMVm-NH2] (H-WKDMV[dM]-NH2) | 1300 nM
CSCC[C@H](NC(=O)[C@H](Cc1ccc(O)cc1)NC(=O)[C@H](Cc1c[nH]cn1)NC(=O)[C@@H](N)Cc1c[nH]c2ccccc12)C(=O)N[C@H](C(=O)N[C@H](CCSC)C(N)=O)C(C)C [WHYMVm-NH2] (H-WHYMV[dM]-NH2) | 32 nM
CSCC[C@H](NC(=O)[C@H](Cc1ccc(O)cc1)NC(=O)[C@H](CCC(=O)O)NC(=O)[C@@H](N)Cc1c[nH]c2ccccc12)C(=O)N[C@H](C(=O)N[C@H](CCSC)C(N)=O)C(C)C [WEYMVm-NH2] (H-WEYMV[dM]-NH2) | 323 nM

Results, then the compound that gave them:

Ki | Structure (SMILES)
57 nM | CSCC[C@H](NC(=O)[C@H](Cc1ccc(O)cc1)NC(=O)[C@H](CCCCN)NC(=O)[C@@H](N)Cc1c[nH]c2ccccc12)C(=O)N[C@@H](Cc1ccccc1)C(=O)N[C@H](CCSC)C(N)=O [WKYM(F/W)m-NH2]
1300 nM | CSCC[C@H](NC(=O)[C@H](CCC(=O)O)NC(=O)[C@H](CCCCN)NC(=O)[C@@H](N)Cc1c[nH]c2ccccc12)C(=O)N[C@H](C(=O)N[C@H](CCSC)C(N)=O)C(C)C [WKEMVm-NH2] (H-WKEMV[dM]-NH2)
671 nM | CSCC[C@H](NC(=O)[C@H](Cc1ccc(O)cc1)NC(=O)[C@H](CCCCN)NC(=O)[C@@H](N)Cc1c[nH]c2ccccc12)C(=O)N[C@@H](Cc1ccc(O)cc1)C(=O)N[C@H](CCSC)C(N)=O [WKYMYm-NH2] (H-WKYMY[dM]-NH2)
18 nM | CSCC[C@H](NC(=O)[C@H](Cc1ccccc1)NC(=O)[C@H](CCCCN)NC(=O)[C@@H](N)Cc1c[nH]c2ccccc12)C(=O)N[C@H](C(=O)N[C@H](CCSC)C(N)=O)C(C)C [WKFMVm-NH2] (H-WKFMV[dM]-NH2)
55 nM | CSCC[C@H](NC(=O)[C@H](Cc1ccc(O)cc1)NC(=O)[C@H](CCCNC(=N)N)NC(=O)[C@@H](N)Cc1c[nH]c2ccccc12)C(=O)N[C@H](C(=O)N[C@H](CCSC)C(N)=O)C(C)C [WRYMVm-NH2] (H-WRYMV[dM]-NH2)
19 nM | CSCC[C@H](NC(=O)[C@H](Cc1c[nH]c2ccccc12)NC(=O)[C@H](CCCCN)NC(=O)[C@@H](N)Cc1c[nH]c2ccccc12)C(=O)N[C@H](C(=O)N[C@H](CCSC)C(N)=O)C(C)C [WKWMVm-NH2] (H-WKWMV[dM]-NH2)
282 nM | CSCC[C@H](NC(=O)[C@H](Cc1c[nH]cn1)NC(=O)[C@H](CCCCN)NC(=O)[C@@H](N)Cc1c[nH]c2ccccc12)C(=O)N[C@H](C(=O)N[C@H](CCSC)C(N)=O)C(C)C [WKHMVm-NH2] (H-WKHMV[dM]-NH2)
